From patent US9446088B2, “Preparation and use of a plant extract from solanum glaucophyllum with an enriched content of 1,25 dihydroxyvitamin D3 glycosides and quercetin glycosides” (HERBONIS AG, priority 2008, dated 2016)

Legend:
[1] = system: Japanese quails (Coturnix japonica) on Vitamin D-deficient diet; experiment: Japanese quail eggshell bioassay for vitamin D activity; type: in vivo
From the text: From Rambeck et al. (see Rambeck et al, Ann. Nutr. Metab. 30, 9-14, (1986)) it is known that the quail egg shell assay is used as a simple bioassay to assess Vitamin D activity. According to this assay, Japanese quails (Coturnix japonica) of egg laying age and selected for a laying performance of >80% were set on a Vitamin D-deficient diet containing all other nutrients in optimal amounts. After approximately 8 days, the laying performance as the most sensitive marker dropped below 10%. Then, the test animals were randomly divided into groups of 10 animals and the diet was changed to the same diet, but supplemented with the substance to be tested. Laying performance was monitored for 21 days together with other markers of vitamin D-metabolism, such as alkaline phosphatase and calcium in plasma.
In Experiment 1 three groups of quails received 100, 200 and 400 international units of vitamin D3 per kg feed, 5 groups received 2, 8, 32, 128 and […] purified plant extract and one group was given synthetic 1, 25-Dihydroxyvitamin D3 (1 μg/kg feed) and another group received ground dried leaves of Solanum glaucophyllum (1000 mg/kg feed).

[2] = system: commercial broiler chickens; experiment: Broiler experiment for leg anomalies (tibial dyschondroplasia); type: in vivo; design: dose or concentration left out as unconfirmed; conditions: after day 14 of treatment
Method: In experiment 2, male one-day old broiler chickens were fed a commercial diet containing 1,000 IUD/kg feed of vitamin D3 ad libitum. […] 76.8 μg 1,25-Dihydroxyvitamin D3 (determined after in vitro hydrolysis of the extract).

SMILES	Eggshell weight (ESW) per day and animal, days 5-21 ([1]; 1 μg per kg feed)	Average egg weight between day 1 and 21 ([1]; 1.0 μg/kg feed)	Egg weight in % of standard group Vitamin D3 400 IUD/kg feed ([1]; 1.0 μg/kg feed)	Healthy animals. (%) [2]	Occurrence of TD (%) [2]	Occurrence of other leg anomalies (%) [2]	Eggshell weight (ESW) per day and animal, days 5-21 ([1]; 100 IUD per kg feed)	Average egg weight between day 1 and 21 ([1]; 100 IUD/kg feed)	Egg weight in % of standard group Vitamin D3 400 IUD/kg feed ([1]; 100 IUD/kg feed)	Eggshell weight (ESW) per day and animal, days 5-21 ([1]; 200 IUD per kg feed)	Average egg weight between day 1 and 21 ([1]; 200 IUD/kg feed)	Egg weight in % of standard group Vitamin D3 400 IUD/kg feed ([1]; 200 IUD/kg feed)	Eggshell weight (ESW) per day and animal, days 5-21 ([1]; 400 IUD per kg feed)	Average egg weight between day 1 and 21 ([1]; 400 IUD/kg feed)	time by which laying performance passed 50% after beginning of treatment ([1]; onset of egg laying)
C=C1/C(=C\C=C2/CCC[C@]3(C)[C@@H]([C@H](C)CCCC(C)(C)O)CC[C@@H]23)C[C@@H](O)C[C@@H]1O [Synthetic 1,25(OH)2D3, 1,25-dihydroxyvitamin D3]	0.502 g	10.58 g	99%	92.9 b %	3.55 *b %	3.55 b %	–	–	–	–	–	–	–	–	–
C=C1CC[C@H](O)C/C1=C/C=C1\CCC[C@]2(C)[C@@H]([C@H](C)CCCC(C)C)CC[C@@H]12 [Vitamin D3, cholecalciferol]	–	–	–	–	–	–	0.231 g	9.61 g	90%	0.434 g	10.40 g	97%	0.738 g	10.70 g	48 to 72 h
